Laboratory results as given in patent US10383910B2, “Methods of increasing fertility of a male subject with costus speciosus extract” (priority 2016, dated 2019).

Columns and labels:
[1] = body weights of rats after 90 days of treatment; format: in vivo, rat
Protocol: (§1) Statistical analyses were performed using SPSS software version 21.00. One-way analysis of variance (ANOVA), post-hoc and least significant difference (LSD) were performed for intergroup comparisons. P>0.05, P≤0.05, and P≤0.001 were considered non-significant, significant, and highly significant, respectively.

testes = testes weights of rats after 90 days of treatment; format: in vivo, rat; conditions: vs control group GI
Protocol: as §1

[2] = plasma levels of testosterone of rats after 90 days of treatment; format: in vivo, rat
Protocol: as §1

testis of the rats = experiment: histological examination of the rat testis (light microscopy, hematoxylin-eosin); conditions: 90 days
Protocol: The experiments in the Examples were conducted on 30 male albino rats of the Wister strain with an age range of 40-45 days (approximately 6 weeks) and a weight range of 68-122 g. […] The rats were provided feed and water, and bred in a private room with a temperature of 24±2° C., a relative humidity of 55±5%, and a 12-hour light/12-hour dark cycle.
The first treatment group (GI) was a control treatment group composed of 5 rats that were given distilled water orally throughout the experiment.
The second treatment group (GII) was composed of 5 rats that were orally administered with only the root extract of Costus speciosus at a dose of 2 mg/kg body weight/day.
The third treatment group (GIII) was composed of 5 rats that were orally administered with risperidone at a low dose of 1 mg/kg body weight/day.
The fourth treatment group (GIV) was composed of 5 rats that were orally administered with both risperidone at the low dose of 1 mg/kg body weight/day and the root extract of Costus speciosus at 2 mg/kg body weight/day.
The fifth treatment group (GV) was composed of 5 rats that were orally administered with risperidone at a high dose of 2 mg/kg body weight/day.
The sixth treatment group (GVI) was composed of 5 rats that were orally administered with both the high dose of risperidone at 2 mg/kg body weight/day and the root extract of Costus speciosus at 2 mg/kg body weight/day. […]

[3] = GV: risperidone high dose 2 mg/kg/day oral

Cc1nc2n(c(=O)c1CCN1CCC(c3noc4cc(F)ccc34)CC1)CCCC2 [risperidone, Risperidone]
body weight ([1]; GIII: risperidone low dose 1 mg/kg/day oral, vs GI or GII): significant increase in body weight
body weight ([1]; GV: risperidone high dose 2 mg/kg/day oral, vs GIII (low dose risperidone)): significant increase in body weight
testes weight (testes; GIII: risperidone low dose 1 mg/kg/day oral): insignificant reduction in testes weight
testes weight (testes; [3]): insignificant reduction in testes weight
plasma level of testosterone ([2]; GIII: risperidone low dose 1 mg/kg/day oral, vs GIV (low dose + root extract)): insignificant reduction in the plasma level of testosterone
plasma level of testosterone ([2]; GV: risperidone high dose 2 mg/kg/day oral, vs GVI (high dose + root extract)): insignificant reduction in the plasma level of testosterone
histological findings in the testis (testis of the rats; GIII: risperidone low dose 1 mg/kg/day oral, vs GI): abnormal, disorganized, and atrophied seminiferous tubules (ST), disorganization of germinal epithelium, a loss of spermatogenic cell types (pointed by arrows), and a massive and wide-spread destruction of germ cells
histological findings in the testis (testis of the rats; [3]): degeneration of the germinal epithelium lining (arrowheads), vacuolation of seminiferous tubules (ST) (*), and intertubular oedema
